Laboratory results from patent US9067938B2, “Pyrazolopyridinone derivatives as LPA receptor antagonists” (Merck Patent GmbH, priority 2010, dated 2015).

Biological target: LPA2 receptor (Homo sapiens, UniProt Q9HBW0)
Assay: LPA2R-calciumflux assay
Assay type: cell-based
Details: U2OS cells recombinant expressing LPA2R; LPA-induced intracellular calcium signal (FLIPR Tetra); 10 concentrations from 30 uM to 1 nM, 1% DMSO
From the text: Description of the LPA2R Assay
Cell Cultivation/Propagation
LPA2R-calciumflux Assay Protocol
The assay detects intra cellular calcium which is generated by cells upon activation of the LPA2 receptor by its ligand LPA. This transient calcium mobilisation can be monitored using a commercial calcium detection kit (e.g. from Molecular Devices). The main component of such a kit is a dye, which becomes fluorescent when calcium is present—a transient fluorescence signal after laddition of a ligand to a test well are the result. Readers like the FLIPR (from Molecular Devices) can be used to monitor such transient “Ca-flux” signals.
The signals are calculated according to peak maximum minus base line. Compounds which are antogonists of LPA lead to a decreased mobilisation of intracellular calcium and thus to a lower signal. The assay is performed in microplates (384 wells per plate).
The assay itself is run according to the following procedure: • 50 uL seed cells (10000 cells/well in DMEM buffer) • Incubate 24 h at 37° C., 10% CO2 • aspirate medium • 50 uL add calcium dye 1×HBSS/HEPES buffer • incubate 1 h at 37° C. (“loading”) • equilibrate 10 min at RT • 5 uL add compounds in HEPES buffer • shake 10 sec. @ 1000 rpm • incubate 15 min at RT • 20 uL add LPA (in the FLIPR Tetra) in KREBS-Puffer/BSA & measurement
The cells are seeded in DMEM buffer (DMEM, 10% FCS, 10 mM HEPES, 1% Pen/Strep).
Dye loading is done in HBSS/HEPES buffer (100 mL 10×HBSS+20 mL 1M HEPES+880 mL water, pH 7.4)
The LPA is added in Krebs/BSA buffer (120 mM NaCl, 5 mM KCl, 0.62 mM MgSO4, 1.8 mM CaCl2, 10 mM HEPES, 6 mM D(+)-Glucose, 0.2% BSA, pH 7.4).
The compounds are pre-diluted in HEPES buffer (20 mM, pH 7.4), whereby the final DMSO content in the assay is kept at 1%. The compounds are pre-diluted in order to generate dose response series on the microplates. The dose response series consist of 10 concentrations for each compound from 30 uM final to 1 nM final. From all compound wells the resulting signals are referred to control wells (located on each plate besides the compound wells) in terms of % activity.
[formula] From these % activity values—along with the corresponding compound concentrations—IC50 values are fitted for each compound using standard fitting programs such as Graphpad Prism. Here the method “log(inhibitor) vs. response—Variable slope” is used. Reader Settings (FLIPR Tetra) • ExcWLength:470—495 • Em.Wlength: 515—575 • Gain: 50 • Exp. Time: 0,4 • Exc.Intensity: 80 • READ with TF • First read interval: 1,00 s • Number of first reads: 240 • Reads before dispense: 10 • Second read interval: 1,00 s • Number of second reads: 0 • Save Images No

Chain of LPA2 receptor (Q9HBW0 whole entry): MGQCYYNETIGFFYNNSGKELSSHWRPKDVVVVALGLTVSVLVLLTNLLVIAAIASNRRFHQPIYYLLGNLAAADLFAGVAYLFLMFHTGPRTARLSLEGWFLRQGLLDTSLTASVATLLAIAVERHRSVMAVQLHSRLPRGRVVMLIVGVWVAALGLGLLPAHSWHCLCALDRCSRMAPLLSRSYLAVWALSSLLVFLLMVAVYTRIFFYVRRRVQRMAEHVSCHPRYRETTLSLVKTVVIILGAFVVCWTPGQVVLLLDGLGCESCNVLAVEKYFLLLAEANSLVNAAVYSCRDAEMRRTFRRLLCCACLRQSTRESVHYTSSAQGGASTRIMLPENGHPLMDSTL

SMILES | IC50 [µM]
O=C1CC(O)(C(F)(F)F)c2c(-c3cccc(F)c3)n[nH]c2N1 (stereo not shown) [Compound 1, 3-(3-Fluoro-phenyl)-4-hydroxy-4-trifluoromethyl-1,4,5,7-tetrahydro-pyrazolo[3,4-b]pyridin-6-one] | < 1
O=C1CC(O)(C(F)(F)F)c2c(-c3ccccc3)n[nH]c2N1 (stereo not shown) [Compound 2, 4-Hydroxy-3-phenyl-4-trifluoromethyl-1,4,5,7-tetrahydro-pyrazolo[3,4-b]pyridin-6-one] | < 1
COc1ccc(-c2n[nH]c3c2C(O)(C(F)(F)F)CC(=O)N3)cc1 (stereo not shown) [Compound 3, 4-Hydroxy-3-(4-methoxy-phenyl)-4-trifluoromethyl-1,4,5,7-tetrahydro-pyrazolo[3,4-b]pyridin-6-one] | < 1
Cn1nc(-c2ccccc2)c2c1NC(=O)CC2(O)C(F)(F)F (stereo not shown) [Compound 4, 4-Hydroxy-1-methyl-3-phenyl-4-trifluoromethyl-1,4,5,7-tetrahydro-pyrazolo[3,4-b]pyridin-6-one] | > 10
O=C1CC(O)(C(F)(F)F)c2c(-c3ccc(Cl)cc3)n[nH]c2N1 (stereo not shown) [Compound 5, 3-(4-Chloro-phenyl)-4-hydroxy-4-trifluoromethyl-1,4,5,7-tetrahydro-pyrazolo[3,4-b]pyridin-6-one] | 1 to 10
Cc1ccc(-c2n[nH]c3c2C(O)(C(F)(F)F)CC(=O)N3)cc1 (stereo not shown) [Compound 6, 4-Hydroxy-3-p-tolyl-4-trifluoromethyl-1,4,5,7-tetrahydro-pyrazolo[3,4-b]pyridin-6-one] | < 1
Cn1nc(-c2cccs2)c2c1NC(=O)CC2(O)C(F)(F)F (stereo not shown) [Compound 7, 4-Hydroxy-1-methyl-3-thiophen-2-yl-4-trifluoromethyl-1,4,5,7-tetrahydro-pyrazolo[3,4-b]pyridin-6-one] | > 10
O=C1CC(O)(C(F)(F)F)c2c(-c3cccs3)n[nH]c2N1 (stereo not shown) [Compound 8, 4-Hydroxy-3-thiophen-2-yl-4-trifluoromethyl-1,4,5,7-tetrahydro-pyrazolo[3,4-b]pyridin-6-one] | < 1
COc1cc(OC)cc(-c2n[nH]c3c2C(O)(C(F)(F)F)CC(=O)N3)c1 (stereo not shown) [Compound 9, 3-(3,5-Dimethoxy-phenyl)-4-hydroxy-4-trifluoromethyl-1,4,5,7-tetrahydro-pyrazolo[3,4-b]pyridin-6-one] | < 1
O=C1C[C@@](O)(C(F)(F)F)c2c(-c3ccccc3)n[nH]c2N1 [Compound 10, (−)-4-Hydroxy-3-phenyl-4-trifluoromethyl-1,4,5,7-tetrahydro-pyrazolo[3,4-b]pyridin-6-one] | < 1
O=C1C[C@](O)(C(F)(F)F)c2c(-c3ccccc3)n[nH]c2N1 [Compound 11, (+)-4-Hydroxy-3-phenyl-4-trifluoromethyl-1,4,5,7-tetrahydro-pyrazolo[3,4-b]pyridin-6-one] | > 10
O=C1CC(O)(C(F)(F)F)c2c(-c3ccc(Br)cc3)n[nH]c2N1 (stereo not shown) [Compound 12, 3-(4-Bromo-phenyl)-4-hydroxy-4-trifluoromethyl-1,4,5,7-tetrahydro-pyrazolo[3,4-b]pyridin-6-one] | > 10
O=C1CC(O)(C(F)(F)F)c2c(-c3cccc(Br)c3)n[nH]c2N1 (stereo not shown) [Compound 13, 3-(3-Bromo-phenyl)-4-hydroxy-4-trifluoromethyl-1,4,5,7-tetrahydro-pyrazolo[3,4-b]pyridin-6-one] | < 1
O=C1CC(O)(C(F)(F)F)c2c(-c3cccc(Cl)c3)n[nH]c2N1 (stereo not shown) [Compound 14, 3-(3-Chloro-phenyl)-4-hydroxy-4-trifluoromethyl-1,4,5,7-tetrahydro-pyrazolo[3,4-b]pyridin-6-one] | < 1

Continued, values first:

IC50 [µM] | SMILES
< 1 | O=C1CC(O)(C(F)(F)F)c2c(-c3cccc(C(F)(F)F)c3)n[nH]c2N1 (stereo not shown) [Compound 15, 4-Hydroxy-4-trifluoromethyl-3-(3-trifluoromethyl-phenyl)-1,4,5,7-tetrahydro-pyrazolo[3,4-b]pyridin-6-one]
> 10 | O=C1CC(O)(C(F)(F)F)c2c(C3CC3)n[nH]c2N1 (stereo not shown) [Compound 16, 3-Cyclopropyl-4-hydroxy-4-trifluoromethyl-1,4,5,7-tetrahydro-pyrazolo[3,4-b]pyridin-6-one]
< 1 | O=C1CC(O)(C(F)(F)F)c2c(-c3ccc(F)cc3)n[nH]c2N1 (stereo not shown) [Compound 17, 3-(4-Fluoro-phenyl)-4-hydroxy-4-trifluoromethyl-1,4,5,7-tetrahydro-pyrazolo[3,4-b]pyridin-6-one]
> 10 | Cn1nc(-c2ccc(Cl)cc2)c2c1NC(=O)CC2(O)C(F)(F)F (stereo not shown) [Compound 18, 3(4-Chloro-phenyl)-4-hydroxy-1-methyl-4-trifluoromethyl-1,4,5,7-tetrahydro-pyrazolo[3,4-b]pyridin-6-one]
> 10 | O=C1CC(O)(C(F)(F)F)c2c(-c3ccccc3)nn(-c3ccccc3)c2N1 (stereo not shown) [Compound 19, 4-Hydroxy-1,3-diphenyl-4-trifluoromethyl-1,4,5,7-tetrahydro-pyrazolo[3,4-b]pyridin-6-one]
< 1 | O=C1C[C@@](O)(C(F)(F)F)c2c(-c3cccc(F)c3)n[nH]c2N1 [Compound 20, (−)-3-(3-Fluoro-phenyl)-4-hydroxy-4-trifluoromethyl-1,4,5,7-tetrahydro-pyrazolo[3,4-b]pyridin-6-one]
> 10 | O=C1C[C@](O)(C(F)(F)F)c2c(-c3cccc(F)c3)n[nH]c2N1 [Compound 21, (+)-3-(3-Fluoro-phenyl)-4-hydroxy-4-trifluoromethyl-1,4,5,7-tetrahydro-pyrazolo[3,4-b]pyridin-6-one]
< 1 | O=C1CC(O)(C(F)(F)F)c2c(-c3ccncc3)n[nH]c2N1 (stereo not shown) [Compound 22, 4-Hydroxy-3-pyridin-4-yl-4-trifluoromethyl-1,4,5,7-tetrahydro-pyrazolo[3,4-b]pyridin-6-one]
1 to 10 | CC1C(=O)Nc2[nH]nc(-c3ccccc3)c2C1(O)C(F)(F)F (stereo not shown) [Compound 24, 4-Hydroxy-5-methyl-3-phenyl-4-trifluoromethyl-1,4,5,7-tetrahydro-pyrazolo[3,4-b]pyridin-6-one]
> 10 | CCC1C(=O)Nc2[nH]nc(-c3ccccc3)c2C1(O)C(F)(F)F (stereo not shown) [Compound 25, 4-Hydroxy-5-ethyl-3-phenyl-4-trifluoromethyl-1,4,5,7-tetrahydro-pyrazolo[3,4-b]pyridin-6-one]
> 10 | O=C1Nc2[nH]nc(-c3ccccc3)c2C(O)(C(F)(F)F)C1CCO (stereo not shown) [Compound 26, 4-Hydroxy-5-(2-hydroxy-ethyl)-3-phenyl-4-trifluoromethyl-1,4,5,7-tetrahydro-pyrazolo[3,4-b]pyridin-6-one]
> 10 | COC1C(=O)Nc2[nH]nc(-c3ccccc3)c2C1(O)C(F)(F)F (stereo not shown) [Compound 27, 4-Hydroxy-5-methoxy-3-phenyl-4-trifluoromethyl-1,4,5,7-tetrahydro-pyrazolo[3,4-b]pyridin-6-one]
> 10 | O=C1CC(O)(C(F)(F)F)c2c(Cc3ccccc3)n[nH]c2N1 (stereo not shown) [Compound 28, 3-Benzyl-4-hydroxy-4-trifluoromethyl-1,4,5,7-tetrahydro-pyrazolo[3,4-b]pyridin-6-one]
> 10 | O=C1CC(O)(C(F)(F)F)c2c(-c3c[nH]c4ccccc34)n[nH]c2N1 (stereo not shown) [Compound 29, 4-Hydroxy-3-(1H-indol-3-yl)-4-trifluoromethyl-1,4,5,7-tetrahydro-pyrazolo[3,4-b]pyridin-6-one]
> 10 | O=C1CC(O)(C(F)(F)F)c2c(-c3ccco3)n[nH]c2N1 (stereo not shown) [Compound 30, 3-Furan-2-yl-4-hydroxy-4-trifluoromethyl-1,4,5,7-tetrahydro-pyrazolo[3,4-b]pyridin-6-one]
< 1 | COc1ccc(-c2n[nH]c3c2C(O)(C(F)(F)F)CC(=O)N3)cc1OC (stereo not shown) [Compound 31, 3-(3,4-Dimethoxy-phenyl)-4-hydroxy-4-trifluoromethyl-1,4,5,7-tetrahydro-pyrazolo[3,4-b]pyridin-6-one]
1 to 10 | COc1cccc(-c2n[nH]c3c2C(O)(C(F)(F)F)CC(=O)N3)c1 (stereo not shown) [Compound 32, 4-Hydroxy-3-(3-methoxy-phenyl)-4-trifluoromethyl-1,4,5,7-tetrahydro-pyrazolo[3,4-b]pyridin-6-one]
